These results are taken from patent US9233099B2, “Methods of treating cognitive dysfunction by modulating brain energy metabolism” (University of Cincinnati, priority 2012, dated 2016).

Data set [1] concerns CRT KO mice. The experiment in a line: Novel Object Recognition test. The data set is classed as in vivo. Conditions: before and after 9-week supplementation, 0.286 mg/g body weight/day. An excerpt: Regarding FIG. 3, CRT brain-specific knockout male mice (CRT′ or CRT KO mice) and their control littermates (CrTf1″5″) were generated by the methods known in the art (e.g., by using the Cre-lox system and homologous recombination as described in Sauer B., Methods, 1998, 14, 381-392; the strategy for targeting the gene deletion to the brain region was based on the data described in Casanova E. et al., Genesis 2001, 31, 37-42). […] A total 29 CRT KO male mice (CRT^/y) and 28 control male mice (CRT^flox/y) at 12 months of age were used in the cyclocreatine supplementation study. The mice were randomly assigned to one of three groups that were started on one of three treatments for 9 weeks: 1) cyclocreatine (C-Cr, CRT KO=7, control=5), 2) creatine (Cr, CRT KO=5, control=5), and 3) maltodextrine as placebo (P, CRT KO=5, control=5). Each treatment drug was supplied in the drinking water and the concentration was adjusted to 0.286 mg/g body weight/day, corresponding to the standard dose of creatine for human subjects (20 g/70 kg body weight/day). Short-term memory of CRT KO mice and their control littermates before and after 9-week cyclocreatine supplementation was measured using the Novel Object Recognition test that is routinely used in the art for evaluation of cognition in rodent models of the disorders of the central nervous system. […]

Data set [2] has as its system CRT KO mice. Nature of the data set: Levels of cyclocreatine in the brain after supplementation. The data set is classed as in vivo. To be noted: 9 weeks supplementation in drinking water, 0.286 mg/g body weight/day. The source says:
Regarding FIG. 3, CRT brain-specific knockout male mice (CRT′ or CRT KO mice) and their control littermates (CrTf1″5″) were generated by the methods known in the art (e.g., by using the Cre-lox system and homologous recombination as described in Sauer B., Methods, 1998, 14, 381-392; the strategy for targeting the gene deletion to the brain region was based on the data described in Casanova E. et al., Genesis 2001, 31, 37-42). […] A total 29 CRT KO male mice (CRT^/y) and 28 control male mice (CRT^flox/y) at 12 months of age were used in the cyclocreatine supplementation study. The mice were randomly assigned to one of three groups that were started on one of three treatments for 9 weeks: 1) cyclocreatine (C-Cr, CRT KO=7, control=5), 2) creatine (Cr, CRT KO=5, control=5), and 3) maltodextrine as placebo (P, CRT KO=5, control=5). […] Levels of cyclocreatine and creatine in the organs of CRT KO mice and their control littermates before cyclocreatine supplementation were measured by the methods known in the art (e.g., creatine content was measured as described in Conn R., Clin. Chem., 1960, 6, 537-548; and cyclocreatine content was measured as described in Griffith G. R., J Biol. Chem. 1976, 251(7), 2049-2054). […] Data is expressed as mean±SE. §P≦0.0001, §§P<0.00001.

The subject of data set [3] is CRT KO mice. The experiment in a line: Morris Water Maze test. It is filed as in vivo. An excerpt:
Regarding FIG. 3, CRT brain-specific knockout male mice (CRT′ or CRT KO mice) and their control littermates (CrTf1″5″) were generated by the methods known in the art (e.g., by using the Cre-lox system and homologous recombination as described in Sauer B., Methods, 1998, 14, 381-392; the strategy for targeting the gene deletion to the brain region was based on the data described in Casanova E. et al., Genesis 2001, 31, 37-42). […] A total 29 CRT KO male mice (CRT^/y) and 28 control male mice (CRT^flox/y) at 12 months of age were used in the cyclocreatine supplementation study. The mice were randomly assigned to one of three groups that were started on one of three treatments for 9 weeks: 1) cyclocreatine (C-Cr, CRT KO=7, control=5), 2) creatine (Cr, CRT KO=5, control=5), and 3) maltodextrine as placebo (P, CRT KO=5, control=5). […] Spatial learning and memory in the CRT KO mice and their control littermates before and after 9-week cyclocreatine supplementation was measured by the Morris Water Maze test, a procedure routinely used in behavioral neuroscience to study spatial learning and memory. […] The mouse swims around the pool in search of an exit while various parameters are recorded, e.g., the time spent in each quadrant of the pool and the time taken to reach the platform (latency). […] Data is expressed as mean±SE, *P≦0.05.

In data set [4] the test system is CRT KO mice. Nature of the data set: Phosphorylated metabolites in the brain by in vivo magnetic resonance spectroscopy. To be noted: after 9 weeks supplementation, in vivo MRS. The source says: Regarding FIG. 3, CRT brain-specific knockout male mice (CRT′ or CRT KO mice) and their control littermates (CrTf1″5″) were generated by the methods known in the art (e.g., by using the Cre-lox system and homologous recombination as described in Sauer B., Methods, 1998, 14, 381-392; the strategy for targeting the gene deletion to the brain region was based on the data described in Casanova E. et al., Genesis 2001, 31, 37-42). […] A total 29 CRT KO male mice (CRT^/y) and 28 control male mice (CRT^flox/y) at 12 months of age were used in the cyclocreatine supplementation study. The mice were randomly assigned to one of three groups that were started on one of three treatments for 9 weeks: 1) cyclocreatine (C-Cr, CRT KO=7, control=5), 2) creatine (Cr, CRT KO=5, control=5), and 3) maltodextrine as placebo (P, CRT KO=5, control=5). Each treatment drug was supplied in the drinking water and the concentration was adjusted to 0.286 mg/g body weight/day, corresponding to the standard dose of creatine for human subjects (20 g/70 kg body weight/day). The levels of phosphorylated metabolites in the brains of the CRT KO and their control littermates were measured by in vivo magnetic resonance spectroscopy using the procedures well known in the art. […] Data is expressed as mean±SE,*P≦0.05, **P≦0.01.

Data set [5] concerns person with X-linked creatine transporter deficiency (CTD). The experiment in a line: Creatine treatment of a child with X-linked creatine transporter deficiency. The data set is classed as in vivo, human. Conditions: increasing doses to 750 mg/kg/day, discontinued after 6 months. The source says: This example illustrates that administration of creatine to a person with X-linked creatine transporter deficiency (CTD) fails to increase brain creatine or to ameliorate clinical symptoms associated with decreased brain levels of creatine. […] Several female family members were identified as heterozygote carriers of this disorder, and appear to have decreased Cr. The child had severe expressive dysphasia with other cognitive functions less affected. […] In the absence of demonstrable benefit, the creatine treatment was discontinued after 6 months.

The next data set addresses T1, creatine transporter (Homo sapiens, UniProt P48029).
T1 construct: endogenous in cells; host or cells: normal human monocytes and macrophages
T1 sequence (P48029 1-635): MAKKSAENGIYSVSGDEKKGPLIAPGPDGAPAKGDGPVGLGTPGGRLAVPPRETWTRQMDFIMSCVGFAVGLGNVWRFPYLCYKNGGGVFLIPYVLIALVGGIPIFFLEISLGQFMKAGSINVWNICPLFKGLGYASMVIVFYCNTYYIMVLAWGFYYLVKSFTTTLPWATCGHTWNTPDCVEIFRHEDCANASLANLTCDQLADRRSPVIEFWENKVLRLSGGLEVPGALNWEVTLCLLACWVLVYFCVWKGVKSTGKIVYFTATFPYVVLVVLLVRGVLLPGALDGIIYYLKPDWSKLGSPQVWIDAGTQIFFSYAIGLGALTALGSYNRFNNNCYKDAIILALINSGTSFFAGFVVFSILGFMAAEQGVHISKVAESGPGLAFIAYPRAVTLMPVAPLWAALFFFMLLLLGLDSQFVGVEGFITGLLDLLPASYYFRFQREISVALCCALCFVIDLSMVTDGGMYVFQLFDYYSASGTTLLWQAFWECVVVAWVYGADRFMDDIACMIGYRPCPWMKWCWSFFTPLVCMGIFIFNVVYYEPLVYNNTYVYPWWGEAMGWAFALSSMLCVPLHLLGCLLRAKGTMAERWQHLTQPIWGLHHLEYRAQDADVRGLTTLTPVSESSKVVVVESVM
To be noted: normal human monocytes and macrophages; read-out: Km of creatine transport; cited from earlier work.

With `NC1=NCCN1CC(=O)O` [cyclocreatine], the “short-term memory (discrimination index)” value with CRT KO mice [1] is listed as “normalizes the short-term memory”. The “levels of cyclocreatine in the brains” value in the data set on CRT KO mice [2] was “increased”. Besides, the “spatial learning and memory” value with CRT KO mice [3] (before and after 9-week supplementation) was “improves spatial learning and memory”. Moreover, the “latency in finding hidden platforms” value with CRT KO mice [3] (versus placebo treated CRT KO mice) is reported as “shorter latency”. Also, the “levels of cyclocreatine and/or creatine phosphate in the brain (peak height ratio)” value with CRT KO mice [4] is recorded as “increases the levels of cyclocreatine and/or creatine phosphate”.

On to `CN(CC(=O)O)C(=N)N` [creatine], for which the “short-term memory (discrimination index)” value with CRT KO mice [1] is recorded as “no significant changes”. Also, the “clinical or spectroscopic (1H MRS) improvement” value in data set [5] was “without clinical or spectroscopic (^1H MRS) improvement”. Also, the Michaelis constant (Km) (commonly the concentration of substrate that gives half-maximal velocity) at creatine transporter is approximately 30 µM.
